# Counter-ions that a name gives are not always drawn.
# Tests used:
# [1] = system: MDA-MB-231, SW620, CT-26, H460, H446, B16F10, A375, CAL-27, RT4, SU-DHL-8, PC-3, Hep G2, 786-O, SNU-1, CFPAC-1, PANC-1, SF126, Hela; conditions: 1 μM, 3 μM, or 10 μM, 7 d; FIG. 28
# Experimental: After 7 d, tumor spheres in the control group and the AT treated group were counted and photographed, respectively.
# Using a One-way ANOVA analysis method and Fisher's LSD test as a post test, statistical differences in the number of tumor spheres in all the groups were analyzed (*, P<0.05; **, P<0.01; ***, P<0.001; ****, P<0.0001; n.s., no significant difference).
# [2] = system: MDA-MB-231, SW620, CT-26, H460, H446, B16F10, A375, CAL-27, KYSE-150, RT4, SU-DHL-8, PC-3, Hep G2, SKOV3, 786-O, CFPAC-1, PANC-1, SF126, U2OS, Hela; assay: tumor sphere formation assays of a variety of cancer cells (Example 3, BH); type: cell-based; conditions: 1 μM, 3 μM, or 10 μM, 7 d; FIG. 29
# Experimental: After 7 d, tumor spheres in the control group and the BH treated group were counted and photographed, respectively.
# (§1) Using a One-way ANOVA analysis method and Fisher's LSD test as a post test, statistical differences in the number of tumor spheres in all the groups were analyzed (*, P<0.05; **, P<0.01; ***, P<0.001; ****, P<0.0001).
# [3] = system: cancer stem cells of 17 cancers; assay: tumor sphere formation assays of cancer cells, summary over 17 cancers; type: cell-based; conditions: summary of Examples 1-9; agonist used alone
# Description: As a gold standard for detecting the self-renewal capability of cancer stem cells in vitro, a tumor sphere formation assay may detect individual cancer stem cell that continuously self-renew in a conditioned medium and form tumor spheres consisting of multiple cells. This in vitro experiment is often used to test the responsiveness of clinical patients to anticancer drugs, and guide in vivo medication of the clinical patients.
# Cancer stem cells have self-renewal capability, which determines the initiation and progression of cancers. As a gold standard for detecting the self-renewal capability of cancer stem cells in vitro, a tumor sphere formation assay may detect individual cancer stem cells that continuously self-renew in a conditioned medium and form tumor spheres consisting of multiple cells.
# [4] = system: MDA-MB-231, SW620, CT-26, H460, H446, B16F10, A375, CAL-27, KYSE-150, RT4, SU-DHL-8, PC-3, Hep G2, 786-O, CFPAC-1, PANC-1, Hela; assay: tumor sphere formation assays of a variety of cancer cells (Example 4, CH); type: cell-based; conditions: 1 μM, 3 μM, or 10 μM, 7 d; FIG. 30
# Experimental: After 7 d, tumor spheres in the control group and the CH treated group were counted and photographed, respectively.
# as §1
# [5] = system: MDA-MB-231, SW620, CT-26, H460, H446, B16F10, A375, CAL-27, KYSE-150, RT4, SU-DHL-8, PC-3, Hep G2, 786-O, CFPAC-1, PANC-1, Hela; assay: tumor sphere formation assays of a variety of cancer cells (Example 5, FH); type: cell-based; conditions: 1 μM, 3 μM, or 10 μM, 7 d; FIG. 31
# Experimental: After 7 d, tumor spheres in the control group and the FH treated group were counted and photographed, respectively.
# as §1
# chronic myeloid leukemia = conditions: patients, first-line treatment for chronic myeloid leukemia; cited from earlier work
# [6] = system: MDA-MB-231, SW620, CT-26, H460, H1299, LLC, H446, B16F10, A375, CAL-27, KYSE-150, RT4, SU-DHL-8, PC-3, Hep G2, G-401, SNU-1, CFPAC-1, PANC-1, SF126, U2OS, Hela; assay: tumor sphere formation assays of a variety of cancer cells (Example 6, IM); type: cell-based; conditions: 1 μM, 3 μM, or 10 μM, 7 d; FIG. 32
# Description: After 7 d, tumor spheres in the control group and the IM treated group were counted and photographed, respectively.
# [7] = system: MDA-MB-231, SW620, CT-26, H460, H446, B16F10, A375, CAL-27, KYSE-150, RT4, SU-DHL-8, PC-3, Hep G2, SKOV3, G-401, CFPAC-1, PANC-1, SF126, U2OS, Hela; assay: tumor sphere formation assays of a variety of cancer cells (Example 7, OH); type: cell-based; conditions: 1 μM, 3 μM, or 10 μM, 7 d; FIG. 33
# Description: According to culture conditions in Table 1-Table 17 of Example 1, breast cancer cells MDA-MB-231 (A), colorectal cancer cells SW620 (B), colorectal cancer cells CT-26 (C), lung cancer cells H460 (D), lung cancer cells H446 (E), melanoma cells B16F10 (F), melanoma cells A375 (G), head and neck cancer cells CAL-27 (H), esophageal cancer cells KYSE-150 (I), bladder cancer cells RT4 (J), hematoma cells SU-DHL-8 (K), prostate cancer cells PC-3 (L), liver cancer cells Hep G2 (M), ovarian cancer cells SKOV3 (N), kidney cancer cells G-401 (O), pancreatic cancer cells CFPAC-1 (P), pancreatic cancer cells PANC-1 (Q), brain cancer cells SF126 (R), osteosarcoma cells U2OS(S), and cervical cancer cells Hela (T) were subjected to tumor sphere formation assays, and treated with olodaterol hydrochloride (OH) at concentrations of 1 μM, 3 μM, or 10 μM, respectively. After 7 d, tumor spheres in the control group and the OH treated group were counted and photographed, respectively.
# as §1
# [8] = system: MDA-MB-231, SW620, CT-26, H460, H1299, LLC, H446, B16F10, A375, CAL-27, KYSE-150, RT4, SU-DHL-8, PC-3, Hep G2, G-401, 786-O, SNU-1, CFPAC-1, SF126, Hela; assay: tumor sphere formation assays of a variety of cancer cells (Example 8, TH); type: cell-based; conditions: 1 μM, 3 μM, or 10 μM, 7 d; FIG. 34
# Description: After 7 d, tumor spheres in the control group and the TH treated group were counted and photographed, respectively.
# [9] = system: MDA-MB-231, SW620, CT-26, H460, H1299, LLC, H446, B16F10, A375, CAL-27, KYSE-150, RT4, SU-DHL-8, PC-3, Hep G2, G-401, 786-O, SNU-1, CFPAC-1, PANC-1, SF126 …; assay: tumor sphere formation assays of a variety of cancer cells (Example 9, VT); type: cell-based; conditions: 1 μM, 3 μM, or 10 μM, 7 d; FIG. 35
# Description: After 7 d, tumor spheres in the control group and the VT treated group were counted and photographed, respectively.
structure (smiles),measurement,setting,value
COc1ccc(C[C@@H](C)NC[C@H](O)c2ccc(O)c(NC=O)c2)cc1 [arformoterol tartrate],number of tumor spheres (inhibition of tumor sphere formation),[1],has therapeutic effects on a variety of types of cancer in a concentration dependent manner
CN(C)C(=O)Oc1cc(OC(=O)N(C)C)cc(C(O)CNC(C)(C)C)c1 (stereo not shown) [bambuterol hydrochloride],number of tumor spheres (inhibition of tumor sphere formation),[2],has therapeutic effects on a variety of types of cancer in a concentration dependent manner
same,self-renewal capability of cancer stem cells,[3],can significantly inhibit the self-renewal capability of cancer stem cells of 17 cancers
CC(C)(C)NCC(O)c1cc(Cl)c(N)c(Cl)c1 (stereo not shown) [clenbuterol hydrochloride],number of tumor spheres (inhibition of tumor sphere formation),[4],has therapeutic effects on a variety of types of cancer in a concentration dependent manner
same,self-renewal capability of cancer stem cells,[3],can significantly inhibit the self-renewal capability of cancer stem cells of 17 cancers
COc1ccc(C[C@@H](C)NC[C@H](O)c2ccc(O)c(NC=O)c2)cc1.COc1ccc(C[C@@H](C)NC[C@H](O)c2ccc(O)c(NC=O)c2)cc1.O=C(O)/C=C/C(=O)O [formoterol hemifumarate],number of tumor spheres (inhibition of tumor sphere formation),[5],has therapeutic effects on a variety of types of cancer in a concentration dependent manner
same,self-renewal capability of cancer stem cells,[3],can significantly inhibit the self-renewal capability of cancer stem cells of 17 cancers
"Cc1ccc(NC(=O)c2ccc(CN3CCN(C)CC3)cc2)cc1Nc1nccc(-c2cccnc2)n1 [imatinib, Imatinib]",overall 10-year survival rate,chronic myeloid leukemia,83.3%
CCc1cc2c(cc1CC)CC(NC[C@H](O)c1ccc(O)c3[nH]c(=O)ccc13)C2 [indacaterol maleate],number of tumor spheres (inhibition of tumor sphere formation),[6],has therapeutic effects on a variety of types of cancer in a concentration dependent manner
same,self-renewal capability of cancer stem cells,[3],can significantly inhibit the self-renewal capability of cancer stem cells of 17 cancers
COc1ccc(CC(C)(C)NC[C@H](O)c2cc(O)cc3c2OCC(=O)N3)cc1 [olodaterol hydrochloride],number of tumor spheres (inhibition of tumor sphere formation),[7],has therapeutic effects on a variety of types of cancer in a concentration dependent manner
same,self-renewal capability of cancer stem cells,[3],can significantly inhibit the self-renewal capability of cancer stem cells of 17 cancers
CC(C)(C)NCC(O)c1ccccc1Cl (stereo not shown) [tulobuterol hydrochloride],number of tumor spheres (inhibition of tumor sphere formation),[8],has therapeutic effects on a variety of types of cancer in a concentration dependent manner
same,self-renewal capability of cancer stem cells,[3],can significantly inhibit the self-renewal capability of cancer stem cells of 17 cancers
O=C(O)C(c1ccccc1)(c1ccccc1)c1ccccc1.OCc1cc([C@@H](O)CNCCCCCCOCCOCc2c(Cl)cccc2Cl)ccc1O [vilanterol trifenate],number of tumor spheres (inhibition of tumor sphere formation),[9],has therapeutic effects on a variety of types of cancer in a concentration dependent manner
same,self-renewal capability of cancer stem cells,[3],can significantly inhibit the self-renewal capability of cancer stem cells of 17 cancers

# From patent US20260216103A1, “USE OF LONG-ACTING ß2AR AGONIST IN PREPARATION OF DRUGS FOR TREATING CANCERS” (HONG KONG SXMETEROL PHARMACEUTICAL CO., LIMITED, priority 2023, published 2026)
